Several values for one entry are separate records, joined by “and”; a condition that tells them apart may be missing. Identical values can stand only once.
Assays:
[1] = tissue concentrations at 24 h (brain, liver, kidney, heart; Supplementary Fig 3g); format: in vivo, C57BL/6 mice; design: Brain concentration (sFig 3g): unit not given here; conditions: for Heart concentration (sFig 3g) / Kidney concentration (sFig 3g) / Liver concentration (sFig 3g) / Brain concentration (sFig 3g): 24 h, individual animals
Description: C57BL/6 mice were administered N-AS (Sigma-Aldrich, 01912) at doses of 1 mg kg^−1 (i.v.) or 10 mg kg^−1 (p.o.). Venous blood samples were collected at 5, 15, and 30 min, and 1, 2, 4, 8, and 24 h postdose. A 30 μl of plasma was separated from whole blood by centrifugation and stored at −80 °C until analysis. Also, brain samples were collected at 1, 2, 4, and 24 h postdose and heart, liver, and kidney samples were collected at 24 h postdose, thoroughly rinsed with physiological saline and weighed. Twenty percentage of tissue homogenates were prepared by homogenizing the tissue samples with four volumes of saline. A 30 μl aliquot of plasma or a 50 μl aliquot of tissue homogenates were deproteinized by addition of 200 μl cold methanol (containing naringenin as internal standard at 20 ng ml^−1) and centrifuged at 15,974×g for 10 min. A 10 μl aliquot of the supernatant was injected into Agilent 6470 LC-MS/MS system. Separation was performed on a Synergy Polar RP column (4 μm particle size, 2.0 mm ×150 mm, Phenomenex) using a mobile phase that consisted of methanol and water (85:15, v/v) with 0.1% formic acid at a flow rate of 0.2 ml min^−1. Quantification was carried out using multiple reaction monitoring (MRM) at m/z 340.3→263.3 for N-AS and m/z 271.1→151.3 for naringenin (internal standard) in negative ionization mode and collision energy of 20 eV. p, and relative oral BA values were calculated as follows: BA% = AUCp.o. normalized by p.o. dose/AUCi.v. normalized by i.v. dose × 100.

[2] = biological target: T1, COX2 WT (Homo sapiens, UniProt P35354); experiment: in vitro [14C] acetylation assay of purified COX2; format: biochemical; design: C14 radioactivity of COX2, acetylation assay (Fig 1h): unit not given here
T1 construct: His (N); made in house
T1 sequence (P35354 18-604): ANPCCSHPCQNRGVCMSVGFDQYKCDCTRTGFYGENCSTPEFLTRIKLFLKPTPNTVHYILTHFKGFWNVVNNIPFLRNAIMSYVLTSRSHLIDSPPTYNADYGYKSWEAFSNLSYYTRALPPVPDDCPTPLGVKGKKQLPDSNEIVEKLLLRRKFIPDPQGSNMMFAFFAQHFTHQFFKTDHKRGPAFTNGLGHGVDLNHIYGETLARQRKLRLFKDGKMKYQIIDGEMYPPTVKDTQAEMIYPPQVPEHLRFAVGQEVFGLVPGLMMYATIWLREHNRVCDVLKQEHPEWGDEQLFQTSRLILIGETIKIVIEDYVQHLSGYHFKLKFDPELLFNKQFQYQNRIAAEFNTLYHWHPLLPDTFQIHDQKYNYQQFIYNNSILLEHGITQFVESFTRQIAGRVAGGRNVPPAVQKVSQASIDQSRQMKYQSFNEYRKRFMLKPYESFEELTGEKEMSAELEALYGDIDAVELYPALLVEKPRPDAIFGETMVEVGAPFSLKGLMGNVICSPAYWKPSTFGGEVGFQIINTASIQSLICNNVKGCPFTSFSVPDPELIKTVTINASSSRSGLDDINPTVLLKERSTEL
Description: Acetylation assays were performed according to previously described procedures with minor modifications. […] To confirm the N-AS-mediated COX2 acetylation, 10 μg COX2 (WT or mutants) was used incubated with [^14C] N-AS (2 μCi, ARC UK Ltd, ARC-1024) at 37 °C for 2 h. [^14C] aspirin (2 μCi, ARC UK Ltd, ARC-0473) was conducted as the positive control. The reactions were terminated by placing the reaction tubes in ice for 5 min. To evaluate in vivo neuronal and microglial COX2 acetylation, 10 μCi [^14C] N-AS was orally administrated to 9-months-old WT and APP/PS1 mice. After 1 h, neuron and microglia were isolated and sonicated in culture media. To immunoprecipitate acetylated COX2, the sample was incubated with COX2 antibody (Abcam, ab15191) at 4 °C for 24 h and precipitated by adding 50 μl of protein-A sepharose (GE Healthcare). Acetylated COX2 proteins bound to the beads were analyzed using a Tri-Carb 3110TR liquid scintillation counter (Perkin-Elmer).

Heart concentration (sFig 3g) ([1]; i.v 1mg/kg): 0 | Kidney concentration (sFig 3g) ([1]; i.v 1mg/kg): 0 | Liver concentration (sFig 3g) ([1]; i.v 1mg/kg): 0 | Brain concentration (sFig 3g) ([1]; i.v 1mg/kg, 1 mg/kg): 13.15 and 12.57 and 8.38 and 7.48 | Heart concentration (sFig 3g) ([1]; p.o. 10mg/kg): 0 | Kidney concentration (sFig 3g) ([1]; p.o. 10mg/kg): 0 | Liver concentration (sFig 3g) ([1]; p.o. 10mg/kg): 0 | Brain concentration (sFig 3g) ([1]; p.o. 10mg/kg, 10 mg/kg): 20.2 and 32.76 and 11.3 and 29.06 | COX2 acetylation level, in words ([2]; [14C] N-AS vs aspirin or SphK1-mediated acetylation): higher-level acetylation
Compound: CCCCCCCCCCCCC/C=C/[C@@H](O)[C@H](CO)NC(C)=O [N-AS, N-((2S,3R,E)-1,3-Dihydroxyoctadec-4-en-2-yl)acetamide]
tissue concentration of N-AS at 24 hours post administration, in words ([1]; brain vs liver, kidney, heart, i.v. 1 mg/kg or p.o. 10 mg/kg): brain showed the highest concentration of N-AS | C14 radioactivity of COX2, acetylation assay (Fig 1h) ([2]; COX2 WT, replicates, listed as C14 N-AS): 278534 and 277829 and 277497 and 262864 and 273318 and 276027

Source: publication PMC7217877, “N-AS-triggered SPMs are direct regulators of microglia in a model of Alzheimer’s disease” (Nature Communications, 2020)
